This test deals with T1, 5-lipoxygenase (Rattus norvegicus, UniProt P12527).
T1 construct: The 100,000 x g supernatant fraction of Rat Basophilic Leukemia Cell Homogenate (RBL-1) serves as a 5-lipoxygenase enzyme source; endogenous in cells; host or cells: RBL-1 (rat basophilic leukemia) cells, 100,000 x g supernatant of homogenate
T1 sequence (P12527 1-673): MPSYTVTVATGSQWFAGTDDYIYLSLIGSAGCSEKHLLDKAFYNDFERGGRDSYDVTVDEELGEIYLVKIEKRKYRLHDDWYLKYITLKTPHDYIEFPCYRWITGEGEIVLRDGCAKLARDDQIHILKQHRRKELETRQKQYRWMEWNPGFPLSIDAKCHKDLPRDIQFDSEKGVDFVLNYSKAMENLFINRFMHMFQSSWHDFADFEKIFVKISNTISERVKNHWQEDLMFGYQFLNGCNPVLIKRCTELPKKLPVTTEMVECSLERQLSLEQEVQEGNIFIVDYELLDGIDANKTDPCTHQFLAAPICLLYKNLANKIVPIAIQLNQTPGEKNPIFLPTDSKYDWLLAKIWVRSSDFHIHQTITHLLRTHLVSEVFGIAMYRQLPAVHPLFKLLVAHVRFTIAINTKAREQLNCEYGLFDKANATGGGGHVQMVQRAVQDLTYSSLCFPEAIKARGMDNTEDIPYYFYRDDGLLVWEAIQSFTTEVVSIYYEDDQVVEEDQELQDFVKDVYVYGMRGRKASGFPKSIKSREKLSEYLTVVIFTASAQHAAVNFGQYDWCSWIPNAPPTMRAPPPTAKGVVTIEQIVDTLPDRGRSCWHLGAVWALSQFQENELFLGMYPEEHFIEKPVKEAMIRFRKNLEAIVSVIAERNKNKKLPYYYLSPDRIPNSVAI
Nature of the test: Inhibition of 5-lipoxygenase, in vitro (5-HETE synthesis, RBL-1 homogenate 100,000 x g supernatant). The class given is biochemical. The following applies: RBL-1 100,000 x g supernatant, [1-14C]-arachidonic acid and Ca++. The protocol: The compounds of the invention are evaluated with respect to 5-lipoxygenaseinhibition according to the following assay procedure.
Inhibition of 5-lipoxygenase, in vitro: anti-inflammatory, anti-allergy activities.
The 100,000 x g supernatant fraction of Rat Basophilic Leukemia Cell Homogenate (RBL-1) serves as a 5-lipoxygenase enzyme source. The enzyme is incubated with [1-^14 C)-arachidonic acid and Ca++ in the presence and absence of test compound. The product of 5-lipoxygenase, 5-hydroxyeicosatetraenoic acid (5-HETE), is separated by thin-layer chromatography and measured by radioactivity. A compound inhibiting 5-HETE synthesis by 30% or more is considered active at that concentration.

With `CC(C)N(C(=O)CCSc1cc(C(C)(C)C)c(O)c(C(C)(C)C)c1)C(C)C` [Example 5, 3-[[3,5-bis(1,1-dimethylethyl)-4-hydroxyphenyl]thio]-N,N-bis(1-methylethyl)propanamide], the IC50 is 1400 nM. Next, `CC(C)N(Cc1ccccc1)C(=O)CCSc1cc(C(C)(C)C)c(O)c(C(C)(C)C)c1` [Example 4, 3-[[3,5-bis(1,1-dimethylethyl)-4-hydroxylphenyl]thio]-N-(1-methylethyl)-N-(phenylmethyl)propanamide]: 560 nM.

By IC50 is commonly meant the point on the concentration scale where inhibition reaches its midpoint. The low end stands for inhibition by little substance, the high end for a need for much substance.

The record behind these values is patent US4835189A, “Phenolic thioalkylamides as inhibitors of 5-lipoxygenase” (G. D. Searle & Co., priority 1987, dated 1989).
